Test results reported in PubChem BioAssay AID1745844 (Carcinogenic Potency Database (CPDB), 2022).
Active and inactive are the calls of the source. How the calls were made is not given here.

Tested on: rodent lifetime carcinogenesis bioassay, tumor incidence TD50
Assay: carcinogenic potency in animals, long-term in vivo studies, CPDB compilation (AID 1745844)

Cc1ccc(N=Nc2c(O)c(S(=O)(=O)O)cc3cc(S(=O)(=O)O)ccc23)c(C)c1
TD50 (mouse, strain DDY, females, in feed, site: liver, lesion: hepatocellular adenoma, dosed 81 weeks, study length 81 weeks): 21500 mg/kg/day | TD50 (mouse, strain DDY, females, in feed, site: liver, lesion: hepatocellular carcinoma, dosed 81 weeks, study length 81 weeks): 784 mg/kg/day | TD50 (mouse, strain DDY, males, in feed, site: liver, lesion: hepatocellular adenoma, dosed 81 weeks, study length 81 weeks): 8790 mg/kg/day | TD50 (mouse, strain DDY, males, in feed, site: liver, lesion: hepatocellular carcinoma, dosed 81 weeks, study length 81 weeks): 659 mg/kg/day | TD50 (rat, strain CFE, females, in feed, site: liver, lesion: nodular hyperplasia, dosed 104 weeks, study length 104 weeks): 704 mg/kg/day | TD50 (rat, strain CFE, males, in feed, site: liver, lesion: nodular hyperplasia, dosed 104 weeks, study length 104 weeks): 2910 mg/kg/day | TD50 (rat, strain Wistar albino, females, in feed, site: liver, lesion: hepatocellular carcinoma, dosed 52 weeks, study length 91 weeks): 2620 mg/kg/day | TD50 (rat, strain Wistar albino, females, in feed, site: liver, lesion: hepatocellular carcinoma, dosed 91 weeks, study length 91 weeks): 3270 mg/kg/day | TD50 (rat, strain Wistar albino, females, in feed, site: liver, lesion: several types, types named in the paper, dosed 52 weeks, study length 91 weeks): 233 mg/kg/day | carcinogen call (rat, strain Wistar albino, females, in feed, site: liver, lesion: several types, types named in the paper, dosed 91 weeks, study length 91 weeks): positive | TD50 (rat, strain Wistar, males, in feed, site: liver, lesion: liver-cell adenoma, dosed 65 weeks, study length 65 weeks): 1130 mg/kg/day

Nc1ncc([N+](=O)[O-])s1
carcinogen call (mouse, strain B6C3F1, females, in feed, site: any site (literature study), lesion: several types, types named in the paper, dosed 104 weeks, study length 104 weeks): negative (inactive) | TD50 (mouse, strain B6C3F1, females, in feed, site: liver, lesion: hepatocellular adenoma + hepatocellular carcinoma + neoplastic nodule, dosed 104 weeks, study length 104 weeks): 109 mg/kg/day | TD50 (mouse, strain B6C3F1, females, in feed, site: lung, lesion: alveolar/bronchiolar adenoma + alveolar/bronchiolar carcinoma, dosed 104 weeks, study length 104 weeks): 63.5 mg/kg/day | carcinogen call (mouse, strain B6C3F1, males, in feed, site: any site (literature study), lesion: several types, types named in the paper, dosed 104 weeks, study length 104 weeks): negative (inactive) | TD50 (rat, strain Fischer 344, females, in feed, site: any site (literature study), lesion: several types, types named in the paper, dosed 110 weeks, study length 111 weeks): 326 mg/kg/day | TD50 (rat, strain Fischer 344, females, in feed, site: uterus, lesion: endometrial stromal polyp, dosed 110 weeks, study length 111 weeks): 57.2 mg/kg/day (inactive) | TD50 (rat, strain Fischer 344, males, in feed, site: all sites + multiple organs, lesion: lymphocytic leukemia + malignant lymphoma + undifferentiated leukemia, dosed 110 weeks, study length 111 weeks): 445 mg/kg/day | TD50 (rat, strain Fischer 344, males, in feed, site: all sites, lesion: leukemia + lymphoma, dosed 110 weeks, study length 111 weeks): 27.6 mg/kg/day | TD50 (rat, strain Fischer 344, males, in feed, site: any site (literature study), lesion: several types, types named in the paper, dosed 110 weeks, study length 111 weeks): 32.3 mg/kg/day | TD50 (rat, strain Fischer 344, males, in feed, site: liver, lesion: hepatocellular adenoma + hepatocellular carcinoma + neoplastic nodule, dosed 110 weeks, study length 111 weeks): 318 mg/kg/day | TD50 (rat, strain Fischer 344, males, in feed, site: multiple organs, lesion: granulocytic leukemia, dosed 110 weeks, study length 111 weeks): 90.2 mg/kg/day | TD50 (rat, strain Sprague-Dawley, females, in feed, site: any site (literature study), lesion: several types, types named in the paper, dosed 46 weeks, study length 66 weeks): 32.5 mg/kg/day | TD50 (rat, strain Sprague-Dawley, females, in feed, site: kidney/pelvis, lesion: transitional-cell carcinoma, dosed 46 weeks, study length 66 weeks): 157 mg/kg/day | TD50 (rat, strain Sprague-Dawley, females, in feed, site: lung, lesion: alveolar-cell carcinoma, dosed 46 weeks, study length 66 weeks): 157 mg/kg/day | TD50 (rat, strain Sprague-Dawley, females, in feed, site: mammary gland, lesion: several types, types named in the paper, dosed 46 weeks, study length 66 weeks): 44.6 mg/kg/day

Nc1ccc(Cl)cc1
carcinogen call (mouse, strain B6C3F1, females, by gavage, site: any site (literature study), lesion: several types, types named in the paper, dosed 103 weeks, study length 105 weeks): negative (inactive) | TD50 (mouse, strain B6C3F1, females, by gavage, site: liver, lesion: hepatocellular adenoma + hepatocellular carcinoma + neoplastic nodule, dosed 103 weeks, study length 105 weeks): 176 mg/kg/day | TD50 (mouse, strain B6C3F1, males, by gavage, site: all sites + liver, lesion: hemangiosarcoma + hepatocellular adenoma + hepatocellular carcinoma, dosed 103 weeks, study length 105 weeks): 56 mg/kg/day | TD50 (mouse, strain B6C3F1, males, by gavage, site: all sites, lesion: hemangiosarcoma, dosed 103 weeks, study length 105 weeks): 89.5 mg/kg/day | TD50 (mouse, strain B6C3F1, males, by gavage, site: any site (literature study), lesion: several types, types named in the paper, dosed 103 weeks, study length 105 weeks): 83.7 mg/kg/day | TD50 (mouse, strain B6C3F1, males, by gavage, site: liver, lesion: hepatocellular adenoma + hepatocellular carcinoma + neoplastic nodule, dosed 103 weeks, study length 105 weeks): 49.3 mg/kg/day | TD50 (mouse, strain B6C3F1, males, by gavage, site: liver, lesion: hepatocellular adenoma + hepatocellular carcinoma, dosed 103 weeks, study length 105 weeks): 49.3 mg/kg/day | TD50 (mouse, strain B6C3F1, males, by gavage, site: liver, lesion: hepatocellular carcinoma, dosed 103 weeks, study length 105 weeks): 33.8 mg/kg/day | TD50 (mouse, strain B6C3F1, males, by gavage, site: lung, lesion: alveolar/bronchiolar adenoma + alveolar/bronchiolar carcinoma, dosed 103 weeks, study length 105 weeks): 2780 mg/kg/day | TD50 (rat, strain Fischer 344, females, by gavage, site: adrenal medulla, lesion: pheochromocytoma, benign, dosed 103 weeks, study length 105 weeks): 105 mg/kg/day | TD50 (rat, strain Fischer 344, females, by gavage, site: any site (literature study), lesion: several types, types named in the paper, dosed 103 weeks, study length 105 weeks): 145 mg/kg/day | TD50 (rat, strain Fischer 344, females, by gavage, site: spleen, lesion: fibrosarcoma + osteosarcoma, dosed 103 weeks, study length 105 weeks): 232 mg/kg/day | TD50 (rat, strain Fischer 344, males, by gavage, site: adrenal medulla, lesion: pheochromocytoma benign, bilateral + pheochromocytoma, benign, dosed 103 weeks, study length 105 weeks): 14.8 mg/kg/day | TD50 (rat, strain Fischer 344, males, by gavage, site: adrenal medulla, lesion: pheochromocytoma benign, bilateral + pheochromocytoma, malignant + pheochromocytoma, benign, dosed 103 weeks, study length 105 weeks): 13.3 mg/kg/day | TD50 (rat, strain Fischer 344, males, by gavage, site: any site (literature study), lesion: several types, types named in the paper, dosed 103 weeks, study length 105 weeks): 20.8 mg/kg/day | TD50 (rat, strain Fischer 344, males, by gavage, site: spleen, lesion: fibrosarcoma + fibroma, dosed 103 weeks, study length 105 weeks): 16.9 mg/kg/day | TD50 (rat, strain Fischer 344, males, by gavage, site: spleen, lesion: fibrosarcoma + hemangiosarcoma + osteosarcoma, dosed 103 weeks, study length 105 weeks): 7.62 mg/kg/day | TD50 (rat, strain Fischer 344, males, by gavage, site: spleen, lesion: fibrosarcoma + osteosarcoma, dosed 103 weeks, study length 105 weeks): 7.9 mg/kg/day | TD50 (rat, strain Fischer 344, males, by gavage, site: spleen, lesion: fibrosarcoma, dosed 103 weeks, study length 105 weeks): 19 mg/kg/day | TD50 (rat, strain Fischer 344, males, by gavage, site: spleen, lesion: hemangiosarcoma, dosed 103 weeks, study length 105 weeks): 107 mg/kg/day | TD50 (rat, strain Fischer 344, males, by gavage, site: spleen, lesion: osteosarcoma, dosed 103 weeks, study length 105 weeks): 15.5 mg/kg/day

ClCc1ccccc1
TD50 (mouse, strain B6C3F1, females, by gavage, site: forestomach, lesion: carcinoma, dosed 104 weeks, study length 107 weeks): 445 mg/kg/day | TD50 (mouse, strain B6C3F1, females, by gavage, site: forestomach, lesion: several types, types named in the paper, dosed 104 weeks, study length 107 weeks): 81 mg/kg/day | TD50 (mouse, strain B6C3F1, females, by gavage, site: lung, lesion: several types, types named in the paper, dosed 104 weeks, study length 107 weeks): 337 mg/kg/day | TD50 (mouse, strain B6C3F1, males, by gavage, site: all sites, lesion: all vascular tumors, dosed 104 weeks, study length 107 weeks): 454 mg/kg/day | TD50 (mouse, strain B6C3F1, males, by gavage, site: forestomach, lesion: carcinoma, dosed 104 weeks, study length 107 weeks): 221 mg/kg/day | TD50 (mouse, strain B6C3F1, males, by gavage, site: forestomach, lesion: several types, types named in the paper, dosed 104 weeks, study length 107 weeks): 49.6 mg/kg/day | TD50 (mouse, strain B6C3F1, males, by gavage, site: liver, lesion: several types, types named in the paper, dosed 104 weeks, study length 107 weeks): 225 mg/kg/day | TD50 (rat, strain Fischer 344, females, by gavage, site: liver, lesion: neoplastic nodule, dosed 104 weeks, study length 107 weeks): 330 mg/kg/day | TD50 (rat, strain Fischer 344, females, by gavage, site: thyroid gland, lesion: several types, types named in the paper, dosed 104 weeks, study length 107 weeks): 40.6 mg/kg/day

[Na+]
TD50 (mouse, strain B6C3F1, females, in drinking water, site: liver, lesion: hyperplastic nodule, dosed 104 weeks, study length 104 weeks): 1.33e+06 mg/kg/day | TD50 (mouse, strain B6C3F1, females, in drinking water, site: lung, lesion: papillary tumor, dosed 104 weeks, study length 104 weeks): 4980 mg/kg/day | TD50 (mouse, strain B6C3F1, males, in drinking water, site: any site (literature study), lesion: several types, types named in the paper, dosed 104 weeks, study length 104 weeks): 992 mg/kg/day | TD50 (mouse, strain B6C3F1, males, in drinking water, site: liver, lesion: hemangioma, dosed 104 weeks, study length 104 weeks): 9550 mg/kg/day | TD50 (mouse, strain B6C3F1, males, in drinking water, site: liver, lesion: hyperplastic nodule, dosed 104 weeks, study length 104 weeks): 5970 mg/kg/day | TD50 (mouse, strain B6C3F1, males, in drinking water, site: lung, lesion: papillary tumor, dosed 104 weeks, study length 104 weeks): 3740 mg/kg/day | TD50 (rat, strain ACI, males, in feed, site: forestomach, lesion: papilloma, dosed 52 weeks, study length 52 weeks): 2660 mg/kg/day | carcinogen call (rat, strain F344/DuCrj, males, in feed, site: forestomach, lesion: one or several types, types not named, dosed 51 weeks, study length 52 weeks): negative (inactive) | carcinogen call (rat, strain F344/DuCrj, males, in feed, site: stomach, glandular, lesion: one or several types, types not named, dosed 51 weeks, study length 52 weeks): negative (inactive) | TD50 (rat, strain Fischer 344, males, in feed, site: adrenal medulla, lesion: pheochromocytoma, dosed 104 weeks, study length 104 weeks): 2980 mg/kg/day (inactive) | carcinogen call (rat, strain Wistar, males, in feed, site: stomach, glandular, lesion: one or several types, types not named, dosed 82 weeks, study length 82 weeks): negative (inactive)
